1 compound from patent US20120122730A1, “Methods for Quantitative Analyses of Kinase Inhibitor Selectivity Using Small Size Panels” (priority 2010, published 2012) can be followed below.

This assay has as its system panel of 287 distinct human protein kinases, three lipid kinases, and 27 disease-relevant mutant variants. The assay can be described thus: Weighted selectivity score from competition binding assays against a kinase panel. The note with it: Kd thresholds <100 nM, <1 μM, <3 μM weighted; panel of 317 assays; FIG. 7. The protocol: In one embodiment, a kinase subset may be determined by using a computational method that can extract knowledge from large amounts of data from known cancer drug designs and find a subset of kinases. A first step in determining a kinase subset involves the use of data from competition binding assays where kinase inhibitors are evaluated against a panel of protein kinases. For each interaction, a quantitative dissociation constant (Kd) is needed.
In one embodiment, a quantitative description, called a weighted selectivity score, is developed for assessing kinome-wide compound reactivities by suitably coarse-graining the binding-affinity vector. […] The weighted selectivity score (normalized or not) is an unbiased measure that enables quantitative comparisons between compounds and the detailed differentiation and analysis of interaction patterns. […]
To validate a method of the present disclosure, data from a previous competition binding assays was used wherein 38 kinase inhibitors were evaluated against a panel of 287 distinct human protein kinases, three lipid kinases, and 27 disease-relevant mutant variants. […] Each compound was screened against the panel of 317 assays at a single concentration of 10 μM to identify candidate kinase targets, and for each interaction observed in this primary screen a quantitative dissociation constant was determined.

`COc1ccc(COc2ccc(Cc3cnc(N)nc3N)cc2OC)cc1` [GW-2580]: the “weighted selectivity score (overall score)” value came out at 3.5.
